According to patent US20260234188A1, “CHEMOKINE-BINDING PEPTIDES” (Oxford University Innovation Limited, priority 2022, published 2026):
Entries after “also recorded” stand apart in the source; their conditions may differ.

system: panel of up to 42 human chemokines; experiment: Phage-display next generation sequencing screen of overlapping hexadecapeptide libraries, chemokines displayed on streptavidin beads; assay type: binding; conditions: log2E greater than 5, chemokines named by first part of UniProt Entry Name
Description: FIG. 1. Exemplar results from phage display screens. Phage-display libraries were constructed and analysed as described in (McLaughlin, 2013) (Tonikian, 2007). […] FIG. 1A, CC chemokines against evasin A library. FIG. 1B, CXC chemokines against the evasin B library. FIG. 1C, CXC and CX3C chemokines against the viral chemokine binding protein library. FIG. 1D, CXC chemokines against the chemokine library. […] Identified hexadecapeptides were mapped to the position in the originating protein (x-axis) and to fold enrichment (log 2 E, left y-axis). Regions of interest (ROI) were defined where the cumulative residue log 2 E, (clog 2 E:r, right y-axis) exceeds the 95% upper confidence interval of the median clog 2 E:r for the entire protein (indicated as a horizontal dotted line in each panel). Proteins are referred to by their UniProt ID.
Hexadecapeptides were identified using a phage-display next generation sequencing approach (McLaughlin, 2013). Libraries containing a total of 55662 overlapping peptides (from the tick chemokine binding proteins shown in Tables 3A and 3B, the viral chemokine binding proteins shown in Table 3C, the human chemokines shown in Table 3 E, and the human/viral chemokine receptors and other chemokine-binding proteins shown in Table 3D) were first constructed, and then screened against a panel of up to 42 human chemokines, as shown in Table 3F.

Substance | Chemokines Bound
CR26721 (WSLVFMAIERINYFAY) | CCL17, CCL18,; also recorded: CXL10
CR24347 (VAYSLIFLLGVIGNVL) | CCL18, CCL19,; also recorded: CCL20, CXL11,; also recorded: CXL14
CR2553 (CGIITSVLAWVTAILA) | CCL11, CCL2, and CCL20, CCL22, and CCL28, CCL8, and X3CL1, CXL10, and SDF1, CXL14, and IL8
CR24960 (VIMMTWFYAFFYSTVQ) | CCL1, CCL17,; also recorded: CCL18, CCL2,; also recorded: CCL22, CCL25,; also recorded: CCL28, CCL5,; also recorded: X3CL1, CXL11,; also recorded: CXL13, IL8
CR26309 (VWLMSIVGTFLNMLVI) | CCL18, CXL10,; also recorded: CXL11, CXL13,; also recorded: CXL14
CR25001 (VITWLVAVFASVPGII) | CCL1, CCL19,; also recorded: CCL2, CXL11,; also recorded: CXL14
CR26036 (VTSLLIWVISLLVSLP) | CCL28, X3CL1, and SDF1, CXL14, and IL8
CR26817 (WVLGDFLCKLLNMIFS) | CCL1, CCL17, and CCL18, CCL20, and CCL28, X3CL1, and CXL10, CXL11, and CXL13, CXL14, and IL8
CR26850 (WVVVFQFQHIMVGLIL) | CCL1, CCL19, and CCL20, CCL28, and SDF1
CR3373 (DLTNWKLLAEIYEYLF) | CCL2, CCL22, and CCL28, CXL10, and CXL11, SDF1, and CXL13, CXL14, and IL8
CR2301 (AWLPYYIGISIDSFIL) | CCL17, CCL19,; also recorded: CCL20
CR5170 (FGVITSIVTWGLAVLA) | X3CL1, CXL10, and IL8
CR4465 (ESLFSALVTLITSLFG) | CCL18, CCL8,; also recorded: CXL10
CR24702 (VFYSLLFVFSLLGNSL) | CCL17, CCL18, and CCL19, CCL20, and CCL22, CCL25, and CCL5, X3CL1, and CXL11, CXL14, and IL8
CR23443 (TNWKLLAEIYEYLFFF) | CCL17, CCL18,; also recorded: X3CL1, CXL10,; also recorded: CXL13
CR26310 (VWLMSIVGTFLNVLVI) | CCL17, CCL18,; also recorded: CCL2, CXL10,; also recorded: CXL11, SDF1,; also recorded: CXL14, IL8
CR5416 (FLAFLRSGYDMWLMLV) | CCL1, CCL11, and CCL17, CCL18, and CCL2, CCL20, and CXL11, CXL13, and IL8
CR23880 (TTVILILAFFASWLPY) | CCL1, CCL18,; also recorded: CCL20, CCL25,; also recorded: CCL28, SDF1,; also recorded: CXL14
CR28001 (YVSFISTTILFLIFSV) | CCL1, CCL15,; also recorded: CCL17, CCL19,; also recorded: CCL20, CCL22,; also recorded: CCL25, CCL28,; also recorded: X3CL1, CXL10,; also recorded: CXL11, CXL14
CR5175: chemokine binding peptide of Table 5A used in FIG. 5 combinations (FGVWLMSIVGTFLNML) | CCL17, CCL22, and IL8
CR4753 (FAQLVYFIYHAVASYS) | CCL2, CXL13, and IL8
CR25802 (VSILVWLLAFSVSLPD) | CCL15, CCL18, and CCL19, CCL20, and CCL28, CXL10, and IL8
CR25165 (VLGLLLNSLALWVFAA) | CCL19, CCL2,; also recorded: CCL20, CCL28

same assay, conditions: log2E greater than 5, chemokines named by first part of UniProt Entry Name, peptides binding complement C5a (control) excluded

Substance | Chemokines Bound
CR8655 (IAVFGLLGNILVVITF) | CCL17, CCL22,; also recorded: CCL25, IL8
EB963 (ENDKKVGLCLSTEYTD) | CXL10, CXL11, and SDF1
CR8339 (HRTVKLIFAIVVAYFL) | CCL28, X3CL1,; also recorded: CXL11, SDF1,; also recorded: CXL14
CR9587 (IMYSIIAFVGLLGNGL) | CCL17, CCL18,; also recorded: CCL20, CXL14
CR6623 (FYYIGFYSSMFFITLM) | CCL1, CCL17,; also recorded: CCL18, CCL19,; also recorded: CCL20, CCL22,; also recorded: CCL28, X3CL1,; also recorded: CXL10, CXL11,; also recorded: SDF1, CXL14
CR9141 (IIIWALAILASMPGLY) | CCL20, CCL28,; also recorded: CXL11, SDF1
CR6611 (FYVITLFASDFVLMWC) | CCL22, CCL25,; also recorded: X3CL1, CXL13
EB3974 (VGLCLSTEYTDFSEYP) | CXL10, SDF1,; also recorded: CXL14
CR9887 (ISLFAGVSFLINLSMD) | CCL17, CCL18,; also recorded: CCL25
CR7367 (GMPPADEDYSPCMLET) | CCL11, CCL18,; also recorded: CCL19, CCL20
CR6041 (FSAILLYIDDFSAYFS) | CCL17, CCL18,; also recorded: X3CL1, IL8
CR9432 (ILMFLSDFSFIFSSWA) | CCL1, CXL10,; also recorded: CXL11, SDF1,; also recorded: CXL14, IL8
EB2359 (NDKKVGLCLSTEYTDF) | CXL10, CXL11,; also recorded: SDF1, CXL14
VP11669 (YSLVFVILMCIPFSFQ) | X3CL1, CXL10,; also recorded: CXL11, IL8
EB2905 (SACSGDCVCVHRDNEP) | CXL10, CXL11, and SDF1
CR9111 (IIFSYVVVFLVAWLPY) | CCL20, CCL22,; also recorded: CCL28, CXL11,; also recorded: CXL13
EB936 (EKSDEYELFTVEYCGT) | CXL10, CXL11,; also recorded: SDF1, CXL13
CR6746 (GDFLAKLLNMIFSISL) | CCL20, CCL25,; also recorded: CCL28
CR6044 (FSALVTLITSLFGSIF) | CCL2, X3CL1,; also recorded: CXL10, IL8
CR5737 (FLVVVYSIVSFLGILG) | CCL17, CCL18,; also recorded: CCL19, CCL2,; also recorded: CCL20, CCL22,; also recorded: CCL25, CCL28,; also recorded: X3CL1, CXL10,; also recorded: CXL13, CXL14
CR6605 (FYVAMFASLSFITEIA) | CXL10, CXL11, and IL8
CR9282 (ILAFFAAWLPYYIGIS) | CCL11, CCL18,; also recorded: X3CL1, CXL10,; also recorded: CXL11, CXL13
CR9113 (IIFSYVVVFLVSWLPY) | CCL17, CCL20, and CCL22, CCL28, and X3CL1, CXL10, and CXL11, SDF1, and CXL13, CXL14, and IL8
CR8677 (IAYSLISVFGLLGNIL) | CCL2, CXL10,; also recorded: CXL13

same assay, conditions: log2E greater than 5, chemokines named by first part of UniProt entry name, C5a (control) binders excluded

Substance | Chemokines Bound
CR21284 (SMVIWVLAFFLSSPSL) | CCL1, CCL18,; also recorded: CCL20
CR22747 (TFKILICIVWGVMPVV) | CCL1, CCL17,; also recorded: CCL18, CCL20,; also recorded: CCL22, CCL28,; also recorded: X3CL1, CXL10,; also recorded: SDF1, CXL13,; also recorded: CXL14
CK3750 (PEWVNTPSTCCLKYYE) | CCL18, CCL19,; also recorded: CCL22, X3CL1
CR1325 (ALYSLLFLLGLLGNGA) | CCL17, CCL19,; also recorded: CCL2, CCL20,; also recorded: CCL22, CXL11,; also recorded: CXL14
CR20965 (SLFAALVTLITSLFGS) | CCL11, CCL17,; also recorded: CCL18, CCL19,; also recorded: CCL2, CCL20,; also recorded: CCL28, X3CL1,; also recorded: CXL10, CXL11,; also recorded: CXL14, IL8
CR19192 (RLGVWLMSIVGTFLNV) | CCL1, CCL17,; also recorded: CCL2, CCL25,; also recorded: X3CL1, CXL11
CR15915 (MVFSFFYVIFAKALHD) | CCL1, CCL18,; also recorded: CCL19, CCL20
CR21238: chemokine binding peptide of Table 5A used in FIG. 5 combinations (SMILESLFSALVTLIT) | CCL2, CXL11, and IL8
CR12308 (LFTLYVSTLDFCIVFI) | CCL20, CCL22, and CCL28, CXL10, and SDF1
CR14780 (LVFVIGLVGNILVVLV) | CCL17, CCL18,; also recorded: CCL19, CCL20,; also recorded: CCL22, CCL25,; also recorded: CCL28, X3CL1,; also recorded: CXL10, CXL14
CR17126 (PCGIITSVLAWVTAIL) | CCL1, CCL20,; also recorded: CCL22, CCL28,; also recorded: X3CL1, CXL10,; also recorded: CXL11, SDF1,; also recorded: CXL14, IL8
CR22748 (TFKILISIVWGVMPVV) | CCL17, CCL18,; also recorded: CCL19, CCL20,; also recorded: CCL22, CCL28,; also recorded: X3CL1, CXL10,; also recorded: CXL11, SDF1,; also recorded: CXL14, IL8
CR11556 (LAKLEAFFLNLSIYWS) | CCL18, CCL2, and CCL25, CCL28, and CCL8, X3CL1, and CXL10, CXL11, and SDF1, CXL13, and IL8
CR20486: chemokine binding peptide of Table 5A used in FIG. 5 combinations (SGIITSVLAWVTAILA) | CCL11, CCL2,; also recorded: CCL8, IL8
CR17298 (PGPWMNILWAWFIFWW) | CCL1, CCL17,; also recorded: CCL18, CCL19,; also recorded: CCL20, CCL28,; also recorded: CXL10, CXL14
CR12569 (LGVWLMAIVGTFLNVL) | CCL2, X3CL1,; also recorded: CXL10, CXL11
CR15063 (LWVVVFQFQHIMVGLI) | CCL17, CCL18, and CCL19, CCL2, and CCL20, CCL22, and CCL28, CCL8, and X3CL1, CXL10, and CXL11, SDF1, and CXL13, CXL14, and IL8
CR1005 (ALAFIYVLMFLSNAIG) | CCL19, CCL2,; also recorded: CCL20, CCL28,; also recorded: CXL14
CR11478 (LAFIYVLMFLANAIGN) | CCL1, CCL20,; also recorded: CXL11, SDF1,; also recorded: CXL13, CXL14
CR20557 (SGYDMWLMLVYSVMIP) | CCL1, CCL15,; also recorded: CCL25
CR15079 (LYAHLASAFLWVVVAV) | CCL17, CCL18,; also recorded: CCL20, CCL22,; also recorded: CCL28, X3CL1,; also recorded: CXL10, CXL11,; also recorded: SDF1, CXL13,; also recorded: CXL14, IL8
CR14765 (LVFLLSLVGNSLVLWV) | CCL2, CCL28,; also recorded: CXL10, IL8
CR10175 (IVTIIITFFLSWSPYH) | CCL1, CCL17,; also recorded: CCL18, CCL20,; also recorded: CCL22, CCL25,; also recorded: CCL28, X3CL1,; also recorded: CXL10, CXL11,; also recorded: CXL14
CR12330 (LFVMLFSYGFTLRTLF) | CCL17, CCL18, and CCL20, CCL22, and CCL28, CXL14, and IL8
